# Laboratory results from US12006321B2, “Substituted pyrazolo[1,5-a]pyrimidines as apelin receptor agonists” (Sanford Burnham Prebys Medical Discovery Institute, priority 2017, dated 2024).
# pEC50: −log10 of the molar value.
# Target: T1, human apelin receptor (APJ, APLNR) (Homo sapiens, UniProt P35414)
# T1 construct: host or cells: Chinese hamster ovary (CHO) cells, stably integrated receptor
# T1 sequence (P35414 1-380): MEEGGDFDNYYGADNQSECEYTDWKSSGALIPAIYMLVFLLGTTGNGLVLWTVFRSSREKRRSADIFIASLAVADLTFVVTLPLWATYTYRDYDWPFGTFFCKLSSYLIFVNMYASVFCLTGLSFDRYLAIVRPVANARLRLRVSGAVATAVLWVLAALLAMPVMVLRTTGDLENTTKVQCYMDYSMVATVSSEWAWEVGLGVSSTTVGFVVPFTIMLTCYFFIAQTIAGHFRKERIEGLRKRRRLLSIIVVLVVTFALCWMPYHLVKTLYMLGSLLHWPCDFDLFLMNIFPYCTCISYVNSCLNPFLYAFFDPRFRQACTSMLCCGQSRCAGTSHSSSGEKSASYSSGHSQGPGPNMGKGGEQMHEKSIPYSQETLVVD
# Assay: cell-based cAMP assay (TR-FRET) in Chinese hamster ovary cells expressing the apelin receptor
# Settings: EC50 = 50% of control (apelin-13, 1 nM) response; cAMP in CHO cells, 0.5 h incubation; read-out: Potency Category
# Procedure, shortened: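 CHO cells stably expressing human APJ were forskolin-stimulated, then exposed to compound (0.0-100 μM, ≤1% DMSO) for 0.5 h. Lysate cAMP read by competitive TR-FRET immunoassay; EC50 and efficacy expressed relative to 1 nM apelin-13, four-parameter fit over ≥10 concentrations.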
row,pEC50,SMILES
1,> 7.00,"Cc1cccc(CO)c1-c1c(C)nn2c(C(C)C)cc(C(=O)O)nc12 [Compound 128, 3-[6-(hydroxymethyl)-2-methylphenyl]-2-methyl-7-(methylethyl)-8-hydropyrazolo[1,5-a]pyrimidine-5-carboxylic acid]"
2,< 6.30,"CCOC(=O)c1cc(C(C)C)n2nc(C)c(-c3c(C)cccc3Br)c2n1 [Compound 129, ethyl 3-(2-bromo-6-methylphenyl)-2-methyl-7-(methylethyl)-8-hydropyrazolo[1,5-a]pyrimidine-5-carboxylate]"
3,6.30 to 6.70,"Cc1cccc(Br)c1-c1c(C)nn2c(C(C)C)cc(C(=O)O)nc12 [Compound 130, 3-(2-bromo-6-methylphenyl)-2-methyl-7-(methylethyl)-8-hydropyrazolo[1,5-a]pyrimidine-5-carboxylic acid]"
4,> 7.00,"COCc1cccc(C)c1-c1c(C)nn2c(C(C)C)cc(C(=O)O)nc12 [Compound 131, 3-[6-(methoxymethyl)-2-methylphenyl]-2-methyl-7-(methylethyl)-8-hydropyrazolo[1,5-a]pyrimidine-5-carboxylic acid]"
5,< 6.30,"COC(=O)c1cc(Nc2ccc(F)cc2)n2nc(C)c(-c3c(C)cccc3C)c2n1 [Compound 132, methyl 3-(2,6-dimethylphenyl)-7-[(4-fluorophenyl)amino]-2-methyl-8-hydropyrazolo[1,5-a]pyrimidine-5-carboxylate]"
6,< 6.30,"COC(=O)c1cc(Nc2ccc(Cl)cc2)n2nc(C)c(-c3c(C)cccc3C)c2n1 [Compound 133, methyl 3-(2,6-dimethylphenyl)-7-[(4-chlorophenyl)amino]-2-methyl-8-hydropyrazolo[1,5-a]pyrimidine-5-carboxylate]"
7,< 6.30,"COC(=O)c1cc(Nc2ccc(C)cc2)n2nc(C)c(-c3c(C)cccc3C)c2n1 [Compound 134, methyl 3-(2,6-dimethylphenyl)-2-methyl-7-[(4-methylphenyl)amino]-8-hydropyrazolo[1,5-a]pyrimidine-5-carboxylate]"
8,< 6.30,"COC(=O)c1cc(Nc2ccc(OC)cc2)n2nc(C)c(-c3c(C)cccc3C)c2n1 [Compound 135, methyl 3-(2,6-dimethylphenyl)-7-[(4-methoxyphenyl)amino]-2-methyl-8-hydropyrazolo[1,5-a]pyrimidine-5-carboxylate]"
9,< 6.30,"COC(=O)c1cc(Nc2ccc(C(F)(F)F)cc2)n2nc(C)c(-c3c(C)cccc3C)c2n1 [Compound 136, methyl 3-(2,6-dimethylphenyl)-2-methyl-7-{[4-(trifluoromethyl)phenyl]amino}-8-hydropyrazolo[1,5-a]pyrimidine-5-carboxylate]"
10,< 6.30,"COC(=O)c1cc(Nc2ccc(OC(F)(F)F)cc2)n2nc(C)c(-c3c(C)cccc3C)c2n1 [Compound 137, methyl 3-(2,6-dimethylphenyl)-2-methyl-7-{[4-(trifluoromethoxy)phenyl]amino}-8-hydropyrazolo[1,5-a]pyrimidine-5-carboxylate]"
11,< 6.30,"COC(=O)c1cc(Nc2ccc(C#N)cc2)n2nc(C)c(-c3c(C)cccc3C)c2n1 [Compound 138, methyl 3-(2,6-dimethylphenyl)-7-[(4-cyanophenyl)amino]-2-methyl-8-hydropyrazolo[1,5-a]pyrimidine-5-carboxylate]"
12,< 6.30,"Cc1cccc(C)c1-c1c(C)nn2c(Nc3ccc(F)cc3)cc(C(=O)O)nc12 [Compound 139, 3-(2,6-dimethylphenyl)-7-[(4-fluorophenyl)amino]-2-methyl-8-hydropyrazolo[1,5-a]pyrimidine-5-carboxylic acid]"
13,< 6.30,"Cc1cccc(C)c1-c1c(C)nn2c(Nc3ccc(Cl)cc3)cc(C(=O)O)nc12 [Compound 140, 3-(2,6-dimethylphenyl)-7-[(4-chlorophenyl)amino]-2-methyl-8-hydropyrazolo[1,5-a]pyrimidine-5-carboxylic acid]"
14,< 6.30,"Cc1ccc(Nc2cc(C(=O)O)nc3c(-c4c(C)cccc4C)c(C)nn23)cc1 [Compound 141, 3-(2,6-dimethylphenyl)-2-methyl-7-[(4-methylphenyl)amino]-8-hydropyrazolo[1,5-a]pyrimidine-5-carboxylic acid]"
15,< 6.30,"COc1ccc(Nc2cc(C(=O)O)nc3c(-c4c(C)cccc4C)c(C)nn23)cc1 [Compound 142, 3-(2,6-dimethylphenyl)-7-[(4-methoxyphenyl)amino]-2-methyl-8-hydropyrazolo[1,5-a]pyrimidine-5-carboxylic acid]"
16,< 6.30,"Cc1cccc(C)c1-c1c(C)nn2c(Nc3ccc(C(F)(F)F)cc3)cc(C(=O)O)nc12 [Compound 143, 3-(2,6-dimethylphenyl)-2-methyl-7-{[4-(trifluoromethyl)phenyl]amino}-8-hydropyrazolo[1,5-a]pyrimidine-5-carboxylic acid]"
17,< 6.30,"Cc1cccc(C)c1-c1c(C)nn2c(Nc3ccc(OC(F)(F)F)cc3)cc(C(=O)O)nc12 [Compound 144, 3-(2,6-dimethylphenyl)-2-methyl-7-{[4-(trifluoromethoxy)phenyl]amino}-8-hydropyrazolo[1,5-a]pyrimidine-5-carboxylic acid]"
18,< 6.30,"Cc1cccc(C)c1-c1c(C)nn2c(Nc3ccc(C#N)cc3)cc(C(=O)O)nc12 [Compound 145, 3-(2,6-dimethylphenyl)-7-[(4-cyanophenyl)amino]-2-methyl-8-hydropyrazolo[1,5-a]pyrimidine-5-carboxylic acid]"
19,< 6.30,"COC(=O)c1cc(N(C)c2ccccc2)n2nc(C)c(-c3c(C)cccc3C)c2n1 [Compound 146, methyl 3-(2,6-dimethylphenyl)-2-methyl-7-(methylphenylamino)-8-hydropyrazolo[1,5-a]pyrimidine-5-carboxylate]"
20,< 6.30,"COC(=O)c1cc(N(C)c2ccc(C)cc2)n2nc(C)c(-c3c(C)cccc3C)c2n1 [Compound 147, methyl 3-(2,6-dimethylphenyl)-2-methyl-7-[methyl(4-methylphenyl)amino]-8-hydropyrazolo[1,5-a]pyrimidine-5-carboxylate]"
21,< 6.30,COC(=O)c1cc(N(C)c2ccc(F)cc2)n2nc(C)c(-c3c(C)cccc3C)c2n1 [Compound 148]
22,< 6.30,Cc1cccc(C)c1-c1c(C)nn2c(N(C)c3ccccc3)cc(C(=O)O)nc12 [Compound 149]
23,< 6.30,"Cc1ccc(N(C)c2cc(C(=O)O)nc3c(-c4c(C)cccc4C)c(C)nn23)cc1 [Compound 150, 3-(2,6-dimethylphenyl)-2-methyl-7-[methyl(4-methylphenyl)amino]-8-hydropyrazolo[1,5-a]pyrimidine-5-carboxylic acid]"
24,< 6.30,"Cc1cccc(C)c1-c1c(C)nn2c(N(C)c3ccc(F)cc3)cc(C(=O)O)nc12 [Compound 151, 3-(2,6-dimethylphenyl)-7-[(4-fluorophenyl)methylamino]-2-methyl-8-hydropyrazolo[1,5-a]pyrimidine-5-carboxylic acid]"
25,< 6.30,"Cc1cccc(C)c1-c1c(C)nn2c(N3CCNCC3)cc(C(=O)O)nc12 [Compound 152, 3-(2,6-dimethylphenyl)-2-methyl-7-piperazinyl-8-hydropyrazolo[1,5-a]pyrimidine-5-carboxylic acid]"
26,< 6.30,"CCCN(C)c1cc(C(=O)O)nc2c(-c3c(C)cccc3C)c(C)nn12 [Compound 153, 3-(2,6-dimethylphenyl)-2-methyl-7-(methylpropylamino)-8-hydropyrazolo[1,5-a]pyrimidine-5-carboxylic acid]"
27,< 6.30,"Cc1cccc(C)c1-c1c(C)nn2c(C3=CCCCC3)cc(C(=O)O)nc12 [Compound 154, 3-(2,6-dimethylphenyl)-7-cyclohex-1-enyl-2-methyl-8-hydropyrazolo[1,5-a]pyrimidine-5-carboxylic acid]"
28,< 6.30,"Cc1cccc(C)c1-c1c(C)nn2c(C3CCCCC3)cc(C(=O)O)nc12 [Compound 155, 3-(2,6-dimethylphenyl)-7-cyclohexyl-2-methyl-8-hydropyrazolo[1,5-a]pyrimidine-5-carboxylic acid]"
29,< 6.30,"Cc1cccc(C)c1-c1c(C)nn2c(-c3ccco3)cc(C(=O)O)nc12 [Compound 156, 3-(2,6-dimethylphenyl)-7-(2-furyl)-2-methyl-8-hydropyrazolo[1,5-a]pyrimidine-5-carboxylic acid]"
30,< 6.30,"COC(=O)c1cc(Cl)n2nc(C)c(-c3c(C)cccc3C)c2n1 [Compound 159, methyl 3-(2,6-dimethylphenyl)-7-chloro-2-methyl-8-hydropyrazolo[1,5-a]pyrimidine-5-carboxylate]"

row,SMILES,pEC50
1,"Cc1cccc(C)c1-c1c(C)nn2c(C3=CCNCC3)cc(C(=O)O)nc12 [Compound 158, 3-(2,6-dimethylphenyl)-2-methyl-7-(4-1,2,5,6-tetrahydropyridyl)-8-hydropyrazolo[1,5-a]pyrimidine-5-carboxylic acid]",< 6.30
